Source: EP4624469A1 (Jiangsu Hengrui Pharmaceuticals Co., Ltd., priority 2022, dated 2024)
Like-named read-outs stand apart in the source and are kept apart here. One block for each compound: values may come before it.

Assays:
miR-124 = experiment: Up-regulation of miR-124 in CD3/CD28 antibody-activated T cells (SYBR green fluorescence quantitative PCR); format: cell-based; conditions: T-cell, 72 h; activated human T cells, final compound concentration 1 µM, 3 days; relative to DMSO, U6 internal reference; read-out: up-regulated miR-124 (relative expression level)
Procedure: The effect of the compound on miR-124 expression levels was assessed in CD3/CD28 antibody-activated T cells. After the activated T cells were treated with the compound, the total cellular RNA was extracted, the cDNA obtained from reverse transcription was used as a template, and quantification was performed by using an SYBR green fluorescence quantitative PCR method and a specific miR-124 primer.
Isolation of T cells: The purchased human peripheral blood mononuclear cells (PBMCs) were counted, filtered, and then washed once with a separation buffer (PBS, pH 7.4, containing 0.5% BSA and 2 mM EDTA), and the supernatant was discarded. Various components were added in such a manner that for every 1 × 10^7 cells, 40 µL of buffer and 10 µL of pan T Cell Biotin-Antibody Cocktail were added. The pellets were resuspended and well mixed, and the suspension was incubated in a refrigerator at 4 °C for 5 min. After the incubation was completed, various components were added in such a manner that for every 1 × 10^7 cells, 30 µL of buffer and 20 µL of Pan T Cell MicroBeads Cocktail were added. After thorough mixing, the mixture was incubated in a refrigerator at 4 °C for 10 min. […] The cells were counted and added at a density of 1 × 10^6 cells/mL to an RPMI1640 culture medium (complete culture medium) containing 10% FBS and 40 U/mL IL-2, and the mixture was stored on ice for later use. […]

[1] = DVS (dynamic vapor sorption) hygroscopicity testing; format: physicochemical
Procedure: DVS refers to dynamic vapor sorption: Surface Measurement Systems instrinsic was adopted; the humidity started at 50%, the humidity range of the investigation was 0%-95%, and the humidity was increased in increments of 10%; the criterion was that each gradient mass change dM/dT is ≤ 0.002%, TMAX 360 min, two cycles.

[2] = Influencing factors stability test (light exposure, high temperature, high humidity); format: physicochemical; conditions: for remaining at 120 h / remaining at 240 h / remaining at 720 h: solid storage, read-out: Purity%
Text: Table 11. The influencing factor stability of the crystal form

[3] = Long-term accelerated stability tests; format: physicochemical; conditions: for Purity (%): Initial; for Crystal form: up to 6 months
Text: Table 12. The long-term accelerated stability of the crystal form

[4] = Light exposure (4500 Lux), 5 days
[5] = Light exposure (4500 Lux), 10 days
[6] = Light exposure (4500 Lux), 30 days

SMILES: FC1(F)Oc2ccc(Nc3ccc4cccc(Cl)c4n3)cc2O1 [Compound 1, 8-Chloro-N-(2,2-difluorobenzo[d][1,3]dioxol-5-yl)quinolin-2-amine]
fold induction at 1 µM (miR-124): 3.9

hygroscopic weight gain ([1]; accelerated experimental conditions (70% RH)): about 0.02%
crystal form re-identified after DVS testing ([1]; after DVS testing): the crystal form did not change
hygroscopic weight gain ([1]; extreme conditions (90% RH)): about 0.18%
hygroscopic weight gain ([1]; normal storage conditions (room temperature and 60% RH)): about 0.02%
Color and state ([2]; 40°C, 5 days): Off-white solid
Crystal form ([2]; 40°C, 5 days): Did not change
Color and state ([2]; 40°C, 10 days): Off-white solid
Crystal form ([2]; 40°C, 10 days): Did not change
Color and state ([2]; 40°C, 30 days): Off-white solid
Crystal form ([2]; 40°C, 30 days): Did not change
Color and state ([2]; 60°C, 5 days): Off-white solid
Crystal form ([2]; 60°C, 5 days): Did not change
Color and state ([2]; 60°C, 10 days): Off-white solid
Crystal form ([2]; 60°C, 10 days): Did not change
Color and state ([2]; 60°C, 30 days): Off-white solid
Crystal form ([2]; 60°C, 30 days): Did not change
Color and state ([2]; 75% RH, 5 days): Off-white solid
Crystal form ([2]; 75% RH, 5 days): Did not change
Color and state ([2]; 75% RH, 10 days): Off-white solid
Crystal form ([2]; 75% RH, 10 days): Did not change
Color and state ([2]; 75% RH, 30 days): Off-white solid
Crystal form ([2]; 75% RH, 30 days): Did not change
Color and state ([2]; 92.5% RH, 5 days): Off-white solid
Crystal form ([2]; 92.5% RH, 5 days): Did not change
Color and state ([2]; 92.5% RH, 10 days): Off-white solid
Crystal form ([2]; 92.5% RH, 10 days): Did not change
Color and state ([2]; 92.5% RH, 30 days): Off-white solid
Crystal form ([2]; 92.5% RH, 30 days): Did not change
Color and state ([2]; Initial, 0 days): Off-white solid
Crystal form ([2]; Initial, 0 days): Crystal form A
Purity (%) ([2]; Initial, 0 days): 100.0%
Color and state [2, 4]: Off-white solid
Crystal form [2, 4]: Did not change
Color and state [2, 5]: Off-white solid
Crystal form [2, 5]: Did not change
Color and state [2, 6]: Off-white solid
Crystal form [2, 6]: Did not change
remaining at 120 h ([2]; 40°C, 5 days): 100%
remaining at 240 h ([2]; 40°C, 10 days): 100%
remaining at 720 h ([2]; 40°C, 30 days): 100%
remaining at 120 h ([2]; 60°C, 5 days): 100%
remaining at 240 h ([2]; 60°C, 10 days): 100%
remaining at 720 h ([2]; 60°C, 30 days): 100%
remaining at 120 h ([2]; 75% RH, 5 days): 100%
remaining at 240 h ([2]; 75% RH, 10 days): 100%
remaining at 720 h ([2]; 75% RH, 30 days): 100%
remaining at 120 h ([2]; 92.5% RH, 5 days): 100%
remaining at 240 h ([2]; 92.5% RH, 10 days): 100%
remaining at 720 h ([2]; 92.5% RH, 30 days): 100%
remaining at 120 h [2, 4]: 100%
remaining at 240 h [2, 5]: 100%
remaining at 720 h [2, 6]: 99.9%
Purity (%) ([3]; 25 °C, 60% RH): 100.0%
Crystal form ([3]; 25 °C, 60% RH): Did not change
Purity (%) ([3]; 40 °C, 75% RH): 100.0%
Crystal form ([3]; 40 °C, 75% RH): Did not change
remaining at 720 h ([3]; solid storage, 25 °C, 60% RH, 1M, read-out: Purity (%)): 100%
remaining at 1440 h ([3]; solid storage, 25 °C, 60% RH, 2M, read-out: Purity (%)): 100%
remaining at 2160 h ([3]; solid storage, 25 °C, 60% RH, 3M, read-out: Purity (%)): 100%
remaining at 4320 h ([3]; solid storage, 25 °C, 60% RH, 6M, read-out: Purity (%)): 100%
SMILES: FC1(F)Oc2ccc(Nc3ccc4cccc(Cl)c4n3)cc2O1 [crystal form A, 8-chloro-N-(2,2-difluorobenzo[d][1,3]dioxol-5-yl)quinolin-2-amine]
physical and chemical stability (conclusion) ([2]; light exposure, 40 °C and 60 °C, 75% and 92.5% humidity, 30 days): both good physical stability and good chemical stability
physical and chemical stability (conclusion) ([3]; 25 °C/60% RH and 40 °C/75% RH, 6 months): both good physical stability and good chemical stability
